{"source": "patent US20250057743A1", "about": "“Oral Care Compositions Comprising Dicarboxylic Acid” (The Procter & Gamble Company, priority 2020, published 2025)", "key": {"[1]": {"experiment": "Slurry pH of composition", "format": "physicochemical", "conditions": "Table 10, treatments of the enamel softening study (1:3 slurry of toothpaste to water)", "description": "The pH of the oral care compositions as described herein can be from about 4 to about 7, from about 4 to about 6, from about 4.5 to about 6.5, or from about 4.5 to about 5.5. The pH of a mouthrinse solution can be determined as the pH of the neat solution. The pH of a dentifrice composition can be determined as a slurry pH, which is the pH of a mixture of the dentifrice composition and water, such as a 1:4, 1:3, or 1:2 mixture of the dentifrice composition and water."}, "[2]": {"conditions": "human, 1 %"}}, "data": [{"molecule": "O=C(O)CC(O)(CC(=O)O)C(=O)O", "note": "[1% Citric Acid, citric acid]", "values": [{"measurement": "Slurry pH", "setting": "[1]", "value": 2.19}, {"measurement": "Δ SMH (change in surface microhardness)", "setting": "[2]", "value": 175.68}]}]}
